Broadly, the AC50 is the concentration at which the activity in the assay is half-maximal.

The test concerns Plasmodium falciparum Dd2 asexual blood stage parasites. In words: microbe, parasite or virus in culture. Further details: species or system Plasmodium falciparum Dd2 in human erythrocytes; single determination (one 11-point concentration-response curve). The conditions noted are these: Plasmodium falciparum, DD2, Erythrocyte, 72 h; read-out: AC50.

The structures appear in SMILES notation.

In the case of `CN(C)CCNC(=O)c1cc(-c2ccccc2F)cc2c1OCCN2Cc1cccnc1` [NCGC00416987-01], the AC50 turned out to be 6.85 µM.
Consider `COc1ccc(-c2nc(Cn3c(SCc4ccccc4F)nc4ccncc43)c(C)o2)cc1OC` [NCGC00113862-01], for which the AC50 amounted to 8.41 µM.
The same measure for `CN1CC2(CCCN(CC3CC3)C2)c2cc(C(=O)NCCOc3ccccc3)ccc21` (stereo not shown) [NCGC00419362-01]: 17.2 µM; for `Cc1cccc(CNCc2ccccc2OCC(O)CN2CCSCC2)c1` (stereo not shown) [NCGC00428382-01]: 1.5 µM.
The same measure for `CN1CCN(c2ccc(NC(=O)c3ccc(-c4cccc([N+](=O)[O-])c4)o3)cc2)CC1` [MLS000663772-01]: 4.73 µM.
Then `COc1ccc(CCn2c(=N)c(C(=O)NCCN3CCOCC3)cc3c(=O)n4cccc(C)c4nc32)cc1OC` [MLS001146185-01], with 13.3 µM.
Turning to `COc1ccc2c(CNCc3ccccc3OC)c(C(=O)O)n(Cc3ccc(F)cc3Cl)c2c1` [NCGC00122363-01], the AC50 is 15 µM.
As for `CCN(CC)c1cc(CCC(=O)NCCN(C)C2CCCCC2)ccn1` [NCGC00469386-01], the AC50 was found to be 13.3 µM.
Then `COc1ccc(-c2c(C#Cc3ccsc3)c3cc(-c4cccc5[nH]ccc45)ccc3n2C)cc1` [MLS002391587-01], with 6.68 µM.
The same measure for `Cc1noc(C)c1-c1cc2c(cc(C)n2CCN(C)C)c(-c2cccc(O)c2)n1` [NCGC00417178-01]: 17.2 µM.
Regarding `O=C(Nc1ccccc1)c1cc2c(-c3ccccc3)nn(-c3ccccc3)c2s1` [NCGC00102084-01], the AC50 was 3.35 µM.
Then `COc1ccc(NC(=O)c2nnn3c2CN(Cc2cccc(Cl)c2)C(=O)CC3)c(C)c1` [NCGC00415347-01], with 2.17 µM; and `COCCc1nn2c(=O)cc(COC(=O)C(c3ccccc3)c3ccccc3)nc2s1` [NCGC00129785-01], with 2.66 µM.
Then `COC(=O)c1cc(O)cc(OC)c1Oc1cc(C)cc(O)c1C(=O)O` [MLS000863583-01], with 4.22 µM.
On to `COC(=O)[C@@H]1Cc2ncn(Cc3ccc(OC)cc3)c2CN1[S+](=O)([O-])Cc1ccccc1` [NCGC00401681-01], for which the AC50 was 15 µM.
The same measure for `CCN1CCN(c2cc(C)c3cc(NC(=O)c4ccc(Br)o4)ccc3n2)CC1` [MLS000878990-01]: 6.68 µM; for `COc1ncccc1-c1nc(-c2c(C)noc2C)cc2c1cc(-c1ccccc1)n2C` [NCGC00417163-01]: 13.7 µM.
The same measure for `Cc1cc(C(=O)CN2C(=O)NC(C)(c3cccc(Br)c3)C2=O)c(C)n1Cc1ccco1` (stereo not shown) [MLS000055137-01]: 13.3 µM.
Regarding `O=C(CC(c1ccc(F)cc1)c1cn(Cc2ccccc2)c2ccc([N+](=O)[O-])cc12)N1CCOCC1` (stereo not shown) [NCGC00473380-01], the AC50 turned out to be 9.44 µM.
Then `COC(=O)c1ccc2nc(C)cc(Nc3ccc(O)cc3)c2c1` [NCGC00099848-01], with 9.44 µM; and `COc1ncc(-c2cc(C(=O)NCc3c(C)cc(C)[nH]c3=O)c3c(c2)N(C(C)C)CCO3)cn1` [NCGC00416983-01], with 9.44 µM; and `COc1ccc(C(=O)N2CCC3(CC2)OC(=O)N(Cc2ccc(O)cc2)C3(C)c2ccccc2)cn1` (stereo not shown) [NCGC00415507-01], with 6.68 µM.
The same measure for `CC(C(=O)N1CCCC1)N1CCN(S(=O)(=O)c2ccc(C(C)(C)C)cc2)CC1` (stereo not shown) [MLS002156464-01]: 3.35 µM; for `CCN(CC)CC(O)COc1ccccc1C(=O)CCc1ccccc1` (stereo not shown) [MLS000107538-01]: 1.5 µM.
Regarding `COC1CCN(C(=O)C(C)(C)Oc2nn(CC3CC3)c3ccc(CN4CCCC4)cc23)CC1` [NCGC00419576-01], the AC50 was 9.44 µM.
Then `COc1cc2nc(NCc3ccccc3Cl)n3nc(-c4cccnc4)nc3c2cc1OC` [NCGC00112532-01], with 2.11 µM; and `COc1cccc(C(=O)N2CCC(N3C[C@H](O)C[C@H]3C(=O)N3CC=C(c4ccccc4)CC3)CC2)c1` [NCGC00460071-01], with 9.44 µM.
The same measure for `O=c1c2c([nH]c3ccccc13)CCCC2` [MLS000551004-01]: 6.68 µM; for `COc1cccc(NC(=O)c2sc3nc(C)c(C(=O)Nc4ccc(C)cc4C)c(-c4cccs4)c3c2N)c1` [NCGC00107008-01]: 5.96 µM.
The same measure for `COCc1ccc2c(c1)c(OC(C)(C)C(=O)N1CCOCC1)nn2Cc1cccc(OC)c1` [NCGC00419580-01]: 8.41 µM; for `COc1ccc(-c2nn(-c3ccc(F)cc3)c(OC(C)=O)c2-c2ccc(NC(C)=O)cc2)cc1OC` [NCGC00473193-01]: 15 µM; for `COc1cncc(Nc2cnc3ccc(-c4ccc(OC)c(OC)c4)nn23)c1` [NCGC00412563-01]: 1.22 µM.
On to `CC(C)c1ccc(-c2noc(SCC(=O)N3CCN(c4ccc(F)cc4)CC3)n2)cc1` [NCGC00127934-01], for which the concentration at half-maximal activity (AC50) is 0.668 µM.
The same measure for `COC(=O)c1nc2n(n1)C(c1ccc([N+](=O)[O-])cc1)C(C(=O)Nc1ccc(Cl)cc1)=C(C)N2` (stereo not shown) [MLS000582454-01]: 5.31 µM; for `CC1=C[C@@H](CNC2CC2)[C@H](C(C)C)C[C@H]1Cc1nnc(-c2ccc(C)cc2)o1` [NCGC00394380-01]: 17.2 µM; for `COc1ccccc1N1CCN(CCCNC(=O)c2cnn(-c3ccccc3Cl)c2C2CCN(C(=O)OC(C)(C)C)CC2)CC1` [NCGC00126752-01]: 2.37 µM.
Turning to `CC1=C[C@@H](CN2CCC[C@H]2CO)[C@H](C(C)C)C[C@H]1Cc1nnc(-c2ccc(N(C)C)cc2)o1` [NCGC00394794-01], the half-maximal activity concentration (AC50) stood at 13.3 µM.
The same measure for `CCn1c(N2CCC(C)CC2)nc2c1c(=O)n(C)c(=O)n2C` [MLS000115844-01]: 5.96 µM; for `CCCn1c(=N)c(C(=O)NC2CCCC2)cc2c(=O)n3cccc(C)c3nc21` [NCGC00100358-01]: 5.96 µM; for `Cc1ccc(C(=O)N2CCC(c3c[nH]c4ccccc34)(c3c[nH]c4ccccc34)CC2)cc1` [NCGC00113768-01]: 8.41 µM.
Then `COc1cc(C#Cc2c(-c3cncn3C)n(C)c3ccc(-c4ccc(OC)c(OC)c4)cc23)cc(OC)c1` [MLS002391599-01], with 4.73 µM.
Take `CC(C)(C)c1ccc(C(=O)Nc2ccc(C(O)[C@H]3COCC(=O)N3Cc3ccccn3)cc2)cc1` (stereo partly shown) [NCGC00392498-01]: the AC50 amounted to 5.31 µM.
Then `CCOC(=O)c1c([S+](=O)([O-])N2CCCC(C(=O)N3CCN(c4cc(C)ccc4C)CC3)C2)c(C)n(C)c1C` (stereo not shown) [NCGC00138145-01], with 1.5 µM; and `O=C(NCC1CCCCC1)C12CN(Cc3ccccc3)CC1C(c1cccc([N+](=O)[O-])c1)=NO2` (stereo not shown) [MLS000561441-01], with 6.68 µM; and `COc1cccc(CC(=O)N2CCCC(CN3CCCC3)CC2)c1` (stereo not shown) [NCGC00456752-01], with 15 µM.
The same measure for `COc1cc2c(cc1OCc1ccccc1)NC(=O)C21CCN(c2ccccn2)CC1` [NCGC00416940-01]: 15.3 µM; for `Oc1ccc(Cl)cc1CN1CCN(Cc2ccccc2)CC1` [MLS000530315-01]: 0.944 µM; for `CCC1=C(C(=O)OC)C(c2ccccc2OC)N2C(CC(=O)NCC3CCCO3)=CSC2=N1` (stereo not shown) [NCGC00473341-01]: 15 µM.
Then `COc1ccc2cc1Nc1ccc(cc1)C[C@H](NC(=O)c1ccc(Oc3ccccc3)cc1)C(=O)N(C)[C@@H](C(=O)Nc1ccccc1)C2` [NCGC00410310-01], with 2.11 µM; and `CCN(CC)c1cc(C)c2cc(NC(=O)/C=C/c3cc(OC)c(OC)c(OC)c3)ccc2n1` [NCGC00104274-01], with 4.73 µM; and `Nc1ccc2oc(-c3ccc4[nH]cnc4c3)nc2c1` [MLS000121646-01], with 13.3 µM.
For `O=C(Nc1ccc(Cl)cc1)N1CCC2(CC1)CCN(Cc1cccs1)c1ccccc1O2` [NCGC00478210-01], the AC50 was determined as 8.41 µM.
Then `COc1cc2c(cc1OCc1cccnc1)N(C(=O)c1ccc(Oc3ccccc3)cc1)CC21CCN(CC(=O)O)CC1` [NCGC00419910-01], with 5.96 µM; and `COc1cc2c(cc1OC)C(COc1ccc3c(C)cc(=O)oc3c1)N(C(=O)c1ccccc1C)CC2` (stereo not shown) [NCGC00104945-01], with 15 µM; and `O=C1COCC2(CN(Cc3ccsc3)C2)CN1Cc1cccc(OC(F)(F)F)c1` [NCGC00418928-01], with 17.2 µM.
Then `O=C(c1nc(-c2cccc(C(F)(F)F)c2)c2cnccn12)N1CCCC1` [NCGC00476432-01], with 10.6 µM; and `O=C1NCN(Cc2ccc(Cl)cc2)C12CCN(CC1CC1)CC2` [NCGC00478768-01], with 9.68 µM.
The same measure for `COc1ccc(-c2cc(-c3cccc(OC)c3OC)cn3cncc23)cc1` [NCGC00412191-01]: 6.85 µM.
For the compound `O=C(Nc1ccccc1C(F)(F)F)c1cc(-c2ccccc2O)on1` [MLS000087293-01], the concentration at half-maximal activity (AC50) was determined as 2.99 µM.
Then `CCOc1ccc2c(c1)OC(c1ccc(C)cc1)(C(F)(F)F)NC2=O` (stereo not shown) [MLS000392832-01], with 2.66 µM.
Then `CCCCNC(=O)c1onc(CSc2nc3ccccc3[nH]2)c1C(=O)NCCCC` [MLS000561096-01], with 5.31 µM; and `CN1CCC2(C1)CN(Cc1ccccc1)c1ccc(C(=O)Nc3ccc(F)cc3)cc12` (stereo not shown) [NCGC00419355-01], with 19.3 µM; and `COc1cc2nc(SCc3ccc(F)cc3)n3nc(CCn4c(C)nc5ccccc54)nc3c2cc1OC` [NCGC00108638-01], with 2.99 µM.
The same measure for `O=c1nc(C2CCN(S(=O)(=O)c3ccc4c(c3)OCCO4)CC2)[nH]c2c1nnn2Cc1ccc(F)cc1` [MLS001216943-01]: 8.41 µM; for `CCC(=O)C1=C(c2ccccc2)N(C(=O)CC)n2c(nnc2-c2ccccc2)S1` [NCGC00137198-01]: 5.96 µM.
For `CCCOc1cccc(C2c3c(oc4cc(C)c(C)cc4c3=O)C(=O)N2CCCN2CCOCC2)c1` (stereo not shown) [NCGC00101917-01], the AC50 was 13.3 µM.
The same measure for `COc1ccccc1NC(=O)N1CC(=O)Nc2sc3c(c2C1c1ccccc1)CCCC3` (stereo not shown) [NCGC00120109-01]: 15 µM; for `CCn1ncc(CN2CCCC23CCN(c2cc(C)nc4ccccc24)CC3)c1C` [NCGC00442843-01]: 5.31 µM; for `O=C1CC(c2ccccc2)N(Cc2ccncc2)CCCN([S+](=O)([O-])c2cccs2)CCN1` (stereo not shown) [NCGC00467201-01]: 6.68 µM.
The same measure for `O=C(Cc1ccc2c(c1)OCO2)N1CCOCC2(CN(Cc3ccccc3)C2)C1` [NCGC00418996-01]: 6.85 µM.

For the origin of these results see article PMC7822874, “Chemoprotective antimalarials identified through quantitative high-throughput screening of Plasmodium blood and liver stage parasites” (Scientific Reports, 2021).
